{
  "source": "patent US7732480B2",
  "about": "“Bicyclic compounds as modulators of androgen receptor function and method” (Bristol-Myers Squibb Company, priority 2004, dated 2010)",
  "key": {"AR": {"molecular_target": "T1, AR (Rattus norvegicus, UniProt P15207)", "T1 sequence (P15207 1-902)": "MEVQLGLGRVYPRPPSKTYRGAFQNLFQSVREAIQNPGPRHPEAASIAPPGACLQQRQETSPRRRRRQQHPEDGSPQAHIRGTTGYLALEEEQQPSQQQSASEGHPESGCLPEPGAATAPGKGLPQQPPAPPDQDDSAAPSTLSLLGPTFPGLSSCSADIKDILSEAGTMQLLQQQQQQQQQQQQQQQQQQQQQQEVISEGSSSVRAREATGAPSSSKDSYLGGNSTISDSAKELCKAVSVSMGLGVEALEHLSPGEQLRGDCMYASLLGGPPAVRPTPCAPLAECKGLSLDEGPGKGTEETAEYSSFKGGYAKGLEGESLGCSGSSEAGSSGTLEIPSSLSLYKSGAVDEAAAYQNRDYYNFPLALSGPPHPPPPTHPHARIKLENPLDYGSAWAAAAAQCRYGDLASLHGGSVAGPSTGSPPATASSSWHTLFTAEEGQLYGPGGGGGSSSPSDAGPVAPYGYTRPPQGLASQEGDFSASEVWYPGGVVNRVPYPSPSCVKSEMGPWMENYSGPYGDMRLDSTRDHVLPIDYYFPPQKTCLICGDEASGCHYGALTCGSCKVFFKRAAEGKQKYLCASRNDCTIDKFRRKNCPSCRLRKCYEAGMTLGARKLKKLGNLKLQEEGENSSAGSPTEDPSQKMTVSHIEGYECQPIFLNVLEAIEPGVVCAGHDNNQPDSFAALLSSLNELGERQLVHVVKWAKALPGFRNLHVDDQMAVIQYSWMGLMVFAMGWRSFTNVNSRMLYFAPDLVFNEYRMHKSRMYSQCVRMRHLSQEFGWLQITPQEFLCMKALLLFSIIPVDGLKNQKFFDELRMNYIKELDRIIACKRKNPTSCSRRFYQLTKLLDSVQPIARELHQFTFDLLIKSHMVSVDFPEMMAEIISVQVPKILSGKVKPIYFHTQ", "settings": "castrated rats", "description": "The activity of compounds of the present invention as AR agonists was investigated in an immature male rat model, a recognized test of anabolic effects in muscle and sustaining effects in sex organs for a given compound, as described in L. G. Hershberger et al., Proc. Soc. […] Biol. Med., 83, 175 (1953); B. L. Beyler et al, “Methods for evaluating anabolic and catabolic agents in laboratory animals”, J. Amer. Med. Women's Ass., 23, 708 (1968); H. Fukuda et al., “Investigations of the levator ani muscle as an anabolic steroid assay”, Nago Dai. Yak. Ken. Nem. 14, 84 (1966) the disclosures of which are herein incorporated by reference.\nThe basis of this assay lies in the well-defined action of androgenic agents on the maintenance and growth of muscle tissues and sexual accessory organs in animals and man. […] J. Anat. […] Ital. Biol. Sper. […] II. […] Ital. Biol. Sper. 42, 1600 (1966); A. Boris et al., Steroids 15, 61 (1970). As described above, the effects of androgens on maintenance of male sexual accessory organs, such as the prostate and seminal vesicles, is well described. Castration results in rapid involution and atrophy of the prostate and seminal vesicles. This effect can be reversed by exogenous addition of androgens. […]"}, "glucocorticoid receptor": {"molecular_target": "glucocorticoid receptor (Homo sapiens, UniProt P04150)", "sequence (P04150 whole entry)": "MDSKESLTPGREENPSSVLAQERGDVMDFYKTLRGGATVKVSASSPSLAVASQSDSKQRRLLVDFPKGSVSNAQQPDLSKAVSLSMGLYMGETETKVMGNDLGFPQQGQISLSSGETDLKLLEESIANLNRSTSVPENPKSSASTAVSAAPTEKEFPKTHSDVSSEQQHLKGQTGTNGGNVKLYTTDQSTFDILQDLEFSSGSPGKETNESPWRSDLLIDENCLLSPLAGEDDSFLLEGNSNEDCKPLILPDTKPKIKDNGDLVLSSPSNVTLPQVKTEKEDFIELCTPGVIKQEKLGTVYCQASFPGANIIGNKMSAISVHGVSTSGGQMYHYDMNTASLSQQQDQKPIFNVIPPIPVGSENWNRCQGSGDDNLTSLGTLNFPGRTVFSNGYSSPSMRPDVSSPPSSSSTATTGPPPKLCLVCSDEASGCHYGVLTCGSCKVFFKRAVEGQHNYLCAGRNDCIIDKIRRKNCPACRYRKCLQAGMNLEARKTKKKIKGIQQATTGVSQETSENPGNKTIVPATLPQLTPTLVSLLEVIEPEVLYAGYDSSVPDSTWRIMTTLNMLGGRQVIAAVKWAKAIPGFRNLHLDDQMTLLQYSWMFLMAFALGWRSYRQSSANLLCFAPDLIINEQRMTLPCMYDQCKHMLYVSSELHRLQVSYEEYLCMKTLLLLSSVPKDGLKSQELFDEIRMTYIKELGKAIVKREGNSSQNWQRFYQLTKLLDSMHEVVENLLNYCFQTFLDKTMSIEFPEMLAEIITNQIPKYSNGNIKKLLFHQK", "settings": "concentration ≦10 μM; A549 cells, 10 ng/mL PMA, 7 h", "method": "The AP-1 assay is a cell-based luciferase reporter assay. A549 cells, which contain endogenous glucocorticoid receptor, were stably transfected with an AP-1 DNA binding site attached to the luciferase gene. Cells are then grown in RPMI+10% fetal calf serum (charcoal-treated)+Penicillin/Streptomycin with 0.5 mg/mL geneticin. Cells are plated the day before the assay at approximately 40000 cells/well. On assay day, the media is removed by aspiration and 20 μL assay buffer (RPMI without phenol red+10% FCS (charcoal-treated)+Pen/Strep) is added to each well. At this point either 20 μL assay buffer (control experiments), the compounds of the present invention (“test compounds”) (dissolved in DMSO and added at varying concentrations) or dexamethasome (100 nM in DMSO, positive control) are added to each well. The plates are then pre-incubated for 15 min at 37° C., followed by stimulation of the cells with 10 ng/mL PMA. The plates are then incubated for 7 h at 37° C. after which 40 μL luciferase substrate reagent is added to each well. Activity is measured by analysis in a luminometer as compared to control experiments treated with buffer or dexamethasome."}, "wild type AR": {"molecular_target": "wild type AR", "settings": "read-out: Kd for [3H]-DHT; MDA 453 cells (wild type AR), Scatchard analysis", "description": "For the saturation analysis, the difference between the total binding and the non-specific binding, was defined as specific binding. […] See e.g. D. Rodbard, Mathematics and statistics of ligand assays: an illustrated guide: In: J. Langon and J. J. Clapp, eds., Ligand Assay, Masson Publishing U.S.A., Inc., New York, pp. 45-99, (1981), the disclosure of which is herein incorporated by reference.\nTwo replicates were used for each sample.\n[formula] After correcting for non-specific binding, IC50 values were determined. […] C2C12 Mouse Myoblast Transactivation Assay"}},
  "data": [
    {"compound": "CCC(=O)O[C@H]1CC[C@H]2[C@@H]3CCC4=CC(=O)CC[C@]4(C)[C@H]3CC[C@]12C", "note": "[TP, testosterone propionate]", "values": [
      {"measurement": "EC50 (increase in organ weight)", "setting": "AR", "result": "~0.03", "unit": "mg"},
      {"measurement": "potency relative to free T", "setting": "AR; organ weight increase", "result": "10-30 fold"}
    ]},
    {"compound": "C[C@@H]1C[C@H]2[C@@H]3CCC4=CC(=O)C=C[C@]4(C)[C@@]3(F)[C@@H](O)C[C@]2(C)[C@@]1(O)C(=O)CO", "note": "[dexamethasone]", "values": [
      {"measurement": "% inhibition of the AP-1 reporter system vs buffer control with PMA", "setting": "glucocorticoid receptor", "result": 65, "unit": "%"}
    ]},
    {"compound": "tritiated dihydrotestosterone [[^3H]-DHT]", "values": [
      {"measurement": "Kd", "setting": "wild type AR", "result": 0.7, "unit": "nM"}
    ]}
  ]
}
